Data from PubChem BioAssay (NCI).
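Each compound was tested at five concentrations against cells in 96-well plates for 48 hours. The concentration for full growth arrest is given as TGI.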

Columns and labels:
Experiment in all cases: NCI anticancer screen, dose series, 48 h
SNB-75 CNS = system: SNB-75 CNS
SK-OV-3 ovarian = system: SK-OV-3 ovarian
EKVX NSCLC = system: EKVX NSCLC
OVCAR-3 ovarian = system: OVCAR-3 ovarian
XF 498 CNS = system: XF 498 CNS
TK-10 renal = system: TK-10 renal
SNB-19 CNS = system: SNB-19 CNS
OVCAR-4 ovarian = system: OVCAR-4 ovarian
HOP-92 NSCLC = system: HOP-92 NSCLC
SF-295 CNS = system: SF-295 CNS
NCI-H226 lung = system: NCI-H226 lung
HCC-2998 colon = system: HCC-2998 colon
DMS 273 small cell lung = system: DMS 273 small cell lung
SK-MEL-28 melanoma = system: SK-MEL-28 melanoma
NCI-H522 lung = system: NCI-H522 lung
UACC-62 melanoma = system: UACC-62 melanoma
CCRF-CEM leukemia = system: CCRF-CEM leukemia
COLO 205 colon = system: COLO 205 colon
HT29 colon = system: HT29 colon
K-562 leukemia = system: K-562 leukemia
SK-MEL-2 melanoma = system: SK-MEL-2 melanoma
HCT-15 colon = system: HCT-15 colon
ACHN renal = system: ACHN renal
SK-MEL-5 melanoma = system: SK-MEL-5 melanoma
IGROV1 ovarian = system: IGROV1 ovarian
HOP-62 NSCLC = system: HOP-62 NSCLC
SF-539 CNS = system: SF-539 CNS
KM12 colon = system: KM12 colon
KM20L2 colon = system: KM20L2 colon
LOX IMVI melanoma = system: LOX IMVI melanoma
OVCAR-8 ovarian = system: OVCAR-8 ovarian
A549 NSCLC = system: A549 NSCLC
HOP-18 NSCLC = system: HOP-18 NSCLC
M19-MEL melanoma = system: M19-MEL melanoma
SW-620 colon = system: SW-620 colon
HCT-116 colon = system: HCT-116 colon
UACC-257 melanoma = system: UACC-257 melanoma
SR leukemia = system: SR leukemia
SNB-78 CNS = system: SNB-78 CNS
LXFL 529 NSCLC = system: LXFL 529 NSCLC
CAKI-1 renal = system: CAKI-1 renal
UO-31 renal = system: UO-31 renal
SN12C renal = system: SN12C renal
RPMI-8226 leukemia = system: RPMI-8226 leukemia
786-0 renal = system: 786-0 renal
A498 renal = system: A498 renal
HL-60(TB) leukemia = system: HL-60(TB) leukemia
M14 melanoma = system: M14 melanoma
DLD-1 colon = system: DLD-1 colon
MOLT-4 leukemia = system: MOLT-4 leukemia
NCI-H23 lung = system: NCI-H23 lung
SF-268 CNS = system: SF-268 CNS
DMS 114 small cell lung = system: DMS 114 small cell lung
OVCAR-5 ovarian = system: OVCAR-5 ovarian
NCI-H460 lung = system: NCI-H460 lung
RXF 393 renal = system: RXF 393 renal
U251 CNS = system: U251 CNS
MALME-3M melanoma = system: MALME-3M melanoma
RXF-631 renal = system: RXF-631 renal

Measured: TGI

Cc1cc(N(CCC#N)CCC#N)ccc1/C=C1N=C(/C=C\c2ccccc2)OC\1=O
not listed: RXF-631 renal
> 100 µM: all other assays above

C[N+](C)(C)CC1CCCC/C1=N\OC(=O)c1ccccc1 (configuration not stated)
not listed: XF 498 CNS | NCI-H226 lung | SK-MEL-2 melanoma | A498 renal | HL-60(TB) leukemia
> 100 µM: all other assays above
